Laboratory results from patent US20050101518A1, “Methods of treating conditions associated with an EDG-2 receptor” (priority 2002, published 2005).

What was measured:
Edg 8 receptor = molecular target: T1, Edg 8 receptor (Homo sapiens, UniProt Q9H228); test: Intracellular calcium measurement (FLIPR), S1P-stimulated calcium increases in HTC cells expressing Edg 8; type: cell-based; details: FIG. 1 and 2
T1 construct: expressed in transfected cells; host or cells: HTC (rat hepatoma) cells

[1] = system: various targets tested, including other GPCRs, ion channels, and enzymes; test: Pharmacology profiling (selectivity assays) at various non-Edg targets; type: binding
Text: Res. Comm. 181:1365-1371. […] Exp Ther. 268:1122-1127. […] 31:997-1004.

[2] = system: A431 human epitheloid carcinoma cells; test: LPA-stimulated calcium mobilization in A431 human epitheloid carcinoma cells; type: cell-based; details: for inhibition of LPA-stimulated calcium mobilization: 10 μM compound, FIG. 6
Text: [The procedure below names another cell line; the source lists this cell line under the same test.] (§1) LPA receptors such as Edg-2, couple to calcium effector pathways, and result in increases in intracellular calcium following receptor activation (An, 1998, J. Cell. Biochem. Supp., 30-31: 147-157). This biological response lends itself to a very efficient, high-throughput screen using a Fluorescence Imaging Plate Reader (FLIPR; Molecular Devices, Sunnyvale, Calif.). The FLIPR system is a real-time, cell-based assay system with continuous fluorescence detection using a cooled CCD camera. The FLIPR system was used to developing an Edg-2 receptor screen. Rat hepatoma cells stably expressing Edg-2 receptor were plated on 384-well plates and loaded with a calcium dye loading kit (Molecular Devices, Sunnyvale, Calif.) for 1 hour at room temperature. Cells were then placed on the FLIPR^384 (Molecular Devices, Sunnyvale, Calif.) and excited by an argon laser at 488 nm. The data for the entire 384-well plate was updated every second. An integrated robotic pipettor allowed for simultaneous compound addition into each individual well in the plate.

Adrenergic β = details: significance criteria ≧50% of max stimulation or inhibition; Table 2
Protocol: (§2) A radioligand binding assay was performed using adrenergic α1 according to the method of Greengrass and Bremner 1979, Eur. J. Pharmacol. 55:323-326. A radioligand binding assay was performed using adrenergic α2 according to the method of Boyajian and Leslie, 1987, J. Pharmacol. Exp. Ther. 241:1092-1098. A redioligand binding assay was performed using adrenergic β according to the method of Feve et al., 1994, Proc. Natl. Acad. Sci. USA 91:5677-5681. A radioligand binding assay was performed using angiotensin AT2 according to the method of Whitebread el al., 1991, Biochem. Biophys. Res. Comm. 181:1365-1371. A radioligand binding assay was performed using calcium channel Type L, dihydropyridine according to the method of Ehlert et al., 1982, Life Sci. 30:2191-2202. A radioligand binding assay was performed using dopamine D2L according to the method of Bunzo et al., 1988, Nature 336:783-787. A radioligand binding assay was performed using endothelin ETA according to the method of Mihara et al., 1994, J. Phrmacol. Exp Ther. 268:1122-1127. A radioligand binding assay was performed using histamine H1 Central according to the method of Hill et al., 1978, J. Neurochem. 31:997-1004. A radioligand binding assay was performed using Muscarinic non-selective, Central according to the method of Luthin and Wolfe, 1984, J. Pharmacol. Exp. Ther. 228:648-655. A radioligand binding assay was performed using serotonin 5-HT1, non-selective according to the method of Middlemiss, 1984, Eur. J. Pharmacol. 101:289-293).

Dopamine D2L = Dopamine D2L (Homo sapiens, UniProt P14416); details: significance criteria ≧50% of max stimulation or inhibition; Table 2
Protocol: as §2

Histamine H1, Central = Histamine H1, Central (Cavia porcellus, UniProt P31389); details: significance criteria ≧50% of max stimulation or inhibition; Table 2
Protocol: as §2

[3] = system: Muscarinic non-selective, Central; details: significance criteria ≧50% of max stimulation or inhibition; Table 2
Protocol: as §2

[4] = system: Adrenergic α1, non-selective; details: significance criteria ≧50% of max stimulation or inhibition; Table 2
Protocol: as §2

Adrenergic α2 = details: significance criteria ≧50% of max stimulation or inhibition; Table 2
Protocol: as §2

Angiotensin AT2 = Angiotensin AT2 (Homo sapiens, UniProt P50052); details: significance criteria ≧50% of max stimulation or inhibition; Table 2
Protocol: as §2

[5] = system: Serotonin 5-HT1, non-selective; details: significance criteria ≧50% of max stimulation or inhibition; Table 2
Protocol: as §2

Endothelin ETA = Endothelin ETA (Homo sapiens, UniProt P25101); details: significance criteria ≧50% of max stimulation or inhibition; Table 2
Protocol: as §2

[6] = system: Calcium Channel Type L, Dihydropyridine; details: significance criteria ≧50% of max stimulation or inhibition; Table 2
Protocol: as §2

Edg 5 receptor = molecular target: T2, Edg 5 receptor (Homo sapiens, UniProt O95136); test: Intracellular calcium measurement (FLIPR), S1P-stimulated calcium increases in HTC cells expressing Edg 5; type: cell-based; details: FIG. 1 and 2
T2 construct: expressed in transfected cells; host or cells: HTC (rat hepatoma) cells

Edg 6 receptor = molecular target: T3, Edg 6 receptor (Homo sapiens, UniProt O95977); test: Intracellular calcium measurement (FLIPR), S1P-stimulated calcium increases in HTC cells expressing Edg 6; type: cell-based; details: for inhibition of S1P-stimulated calcium increases, Edg 6: FIG. 1 and 2; for IC50: calcium mobilization
T3 construct: expressed in transfected cells; host or cells: HTC (rat hepatoma) cells
T3 sequence (O95977 1-384): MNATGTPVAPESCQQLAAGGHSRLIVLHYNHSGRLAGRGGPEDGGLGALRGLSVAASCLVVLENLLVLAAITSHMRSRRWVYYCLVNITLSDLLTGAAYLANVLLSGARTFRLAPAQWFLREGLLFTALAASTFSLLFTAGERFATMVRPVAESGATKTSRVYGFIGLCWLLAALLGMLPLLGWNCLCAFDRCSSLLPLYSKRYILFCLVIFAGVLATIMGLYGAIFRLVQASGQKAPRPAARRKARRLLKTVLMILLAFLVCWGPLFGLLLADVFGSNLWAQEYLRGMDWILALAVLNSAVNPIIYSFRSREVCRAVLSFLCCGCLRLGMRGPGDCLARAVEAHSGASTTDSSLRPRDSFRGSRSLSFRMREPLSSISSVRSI

Edg-7 receptor = molecular target: T4, Edg-7 receptor (Homo sapiens, UniProt Q9UBY5); test: Intracellular calcium measurement (FLIPR), LPA-stimulated calcium increases in HTC cells expressing Edg-7; type: cell-based; details: FIG. 1 and 2
T4 construct: expressed in transfected cells; host or cells: HTC (rat hepatoma) cells

Edg-4 receptor = molecular target: T5, Edg-4 receptor (Homo sapiens, UniProt Q9HBW0); test: Intracellular calcium measurement (FLIPR), LPA-stimulated calcium increases in HTC cells expressing Edg-4; type: cell-based; details: FIG. 1 and 2
T5 construct: expressed in transfected cells; host or cells: HTC (rat hepatoma) cells

Edg-2 receptor = molecular target: T6, Edg-2 receptor (Homo sapiens, UniProt Q92633); test: Intracellular calcium measurement (FLIPR), LPA-stimulated calcium increases in rat hepatoma (HTC) cells stably expressing Edg-2; type: cell-based; details: for inhibition of the Edg 2 receptor: FIG. 1 and 2; for IC50: calcium mobilization, HTC cells expressing Edg 2; for Fold Selective: selectivity for Edg-2 relative to other Edg receptors
T6 construct: expressed in transfected cells
Text: as §1

Edg 3 receptor = molecular target: T7, Edg 3 receptor (Homo sapiens, UniProt Q99500); test: Intracellular calcium measurement (FLIPR), S1P-stimulated calcium increases in HTC cells expressing Edg 3; type: cell-based; details: FIG. 1 and 2
T7 construct: expressed in transfected cells; host or cells: HTC (rat hepatoma) cells

Edg 1 receptor = molecular target: T8, Edg 1 receptor (Homo sapiens, UniProt P21453); test: Intracellular calcium measurement (FLIPR), S1P-stimulated calcium increases in HTC cells expressing Edg 1; type: cell-based; details: FIG. 1 and 2
T8 construct: expressed in transfected cells; host or cells: HTC (rat hepatoma) cells

[7] = system: forskolin-stimulated cAMP production; test: cAMP assay: LPA inhibition of forskolin-stimulated cAMP production; type: cell-based; details: 10 μM compound; FIG. 4
Protocol: Cells were plated in a 96 well format. Treatments were performed directly without any serum starvation. The cells were treated with forskolin to induce cAMP production, followed by LPA or S1P doses in the range from 0.1-10 μM in serum free medium. Following a 30-minute incubation period, the cells were lysed and the level of cAMP was determined.
The cAMP assay was performed using the Tropix cAMP-Screen (Applied BioSystems, Foster City, Calif.). The screen is a competitive immunoassay that utilizes a 96 well assay plate precoated with an anti-cAMP antibody. Cell lysates were added to the precoated plate, along with a cAMP-AP conjugate and a secondary anti-cAMP antibody.
Detection was performed using a substrate solution and chemiluminescent readout. The level of chemiluminescence was inversely proportional to the level of cAMP and was calculated from a standard curve.

[8] = system: immortalized ovarian surface epithelial cells; test: LPA-stimulated calcium mobilization in immortalized ovarian surface epithelial cells; type: cell-based; details: 10 μM compound, FIG. 3
Text: [The procedure below names another cell line; the source lists this cell line under the same test.] as §1

T6 sequence (Q92633 whole entry): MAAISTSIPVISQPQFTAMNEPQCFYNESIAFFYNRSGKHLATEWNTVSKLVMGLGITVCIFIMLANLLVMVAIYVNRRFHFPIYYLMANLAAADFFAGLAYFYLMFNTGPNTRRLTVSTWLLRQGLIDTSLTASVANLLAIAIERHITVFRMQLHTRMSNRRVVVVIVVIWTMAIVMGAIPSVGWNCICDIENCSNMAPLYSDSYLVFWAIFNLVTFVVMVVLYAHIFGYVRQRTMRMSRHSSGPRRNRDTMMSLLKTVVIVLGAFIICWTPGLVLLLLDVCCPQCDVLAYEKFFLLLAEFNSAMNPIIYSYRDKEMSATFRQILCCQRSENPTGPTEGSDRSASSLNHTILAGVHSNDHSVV
T4 sequence (Q9UBY5 whole entry): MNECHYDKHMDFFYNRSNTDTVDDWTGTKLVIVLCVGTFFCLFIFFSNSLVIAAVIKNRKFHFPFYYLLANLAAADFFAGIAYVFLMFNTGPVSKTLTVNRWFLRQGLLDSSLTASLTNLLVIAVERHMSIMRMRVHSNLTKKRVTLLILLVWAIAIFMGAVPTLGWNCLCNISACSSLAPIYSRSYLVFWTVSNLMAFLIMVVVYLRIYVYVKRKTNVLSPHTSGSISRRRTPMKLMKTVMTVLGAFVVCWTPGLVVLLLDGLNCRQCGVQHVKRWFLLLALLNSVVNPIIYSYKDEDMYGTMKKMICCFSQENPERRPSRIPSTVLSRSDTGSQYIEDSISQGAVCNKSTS
T7 sequence (Q99500 whole entry): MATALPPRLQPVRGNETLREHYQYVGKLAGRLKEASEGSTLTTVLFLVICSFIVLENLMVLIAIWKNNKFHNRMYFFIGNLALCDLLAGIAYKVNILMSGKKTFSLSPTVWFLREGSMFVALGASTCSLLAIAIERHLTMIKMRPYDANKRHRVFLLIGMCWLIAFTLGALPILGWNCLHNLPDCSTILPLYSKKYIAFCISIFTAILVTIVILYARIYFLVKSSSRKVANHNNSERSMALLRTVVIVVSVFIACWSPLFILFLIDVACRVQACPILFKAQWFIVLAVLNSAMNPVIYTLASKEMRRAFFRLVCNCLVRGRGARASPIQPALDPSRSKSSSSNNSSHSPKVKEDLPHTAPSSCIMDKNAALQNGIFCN
T8 sequence (P21453 whole entry): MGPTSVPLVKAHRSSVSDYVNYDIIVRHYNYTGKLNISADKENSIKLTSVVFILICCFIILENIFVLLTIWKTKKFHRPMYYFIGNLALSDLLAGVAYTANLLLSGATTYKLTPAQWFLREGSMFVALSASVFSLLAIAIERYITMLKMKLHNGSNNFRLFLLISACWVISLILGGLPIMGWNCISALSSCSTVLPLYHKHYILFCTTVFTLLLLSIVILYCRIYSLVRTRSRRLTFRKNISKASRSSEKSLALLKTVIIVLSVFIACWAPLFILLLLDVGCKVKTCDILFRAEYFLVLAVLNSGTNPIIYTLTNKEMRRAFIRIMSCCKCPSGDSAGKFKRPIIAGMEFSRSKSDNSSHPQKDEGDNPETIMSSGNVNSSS
T2 sequence (O95136 whole entry): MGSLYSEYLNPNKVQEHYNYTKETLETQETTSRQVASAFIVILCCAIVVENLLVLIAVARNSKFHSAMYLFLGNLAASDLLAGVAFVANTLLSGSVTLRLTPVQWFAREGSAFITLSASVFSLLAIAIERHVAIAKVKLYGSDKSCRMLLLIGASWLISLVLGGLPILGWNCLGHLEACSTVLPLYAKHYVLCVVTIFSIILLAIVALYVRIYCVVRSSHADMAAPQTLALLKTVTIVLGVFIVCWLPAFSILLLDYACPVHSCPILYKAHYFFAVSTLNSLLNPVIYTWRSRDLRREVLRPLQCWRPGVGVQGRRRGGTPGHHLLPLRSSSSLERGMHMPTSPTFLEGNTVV
T5 sequence (Q9HBW0 whole entry): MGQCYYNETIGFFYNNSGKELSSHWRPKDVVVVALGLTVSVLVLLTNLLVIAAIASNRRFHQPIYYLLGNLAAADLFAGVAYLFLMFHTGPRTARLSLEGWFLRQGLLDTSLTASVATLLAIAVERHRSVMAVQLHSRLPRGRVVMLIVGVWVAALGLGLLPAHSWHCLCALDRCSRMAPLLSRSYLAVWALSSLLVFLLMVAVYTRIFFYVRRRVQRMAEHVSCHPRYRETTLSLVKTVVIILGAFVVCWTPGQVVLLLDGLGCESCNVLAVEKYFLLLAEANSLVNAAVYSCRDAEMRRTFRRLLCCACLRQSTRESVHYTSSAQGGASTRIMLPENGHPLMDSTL
T1 sequence (Q9H228 whole entry): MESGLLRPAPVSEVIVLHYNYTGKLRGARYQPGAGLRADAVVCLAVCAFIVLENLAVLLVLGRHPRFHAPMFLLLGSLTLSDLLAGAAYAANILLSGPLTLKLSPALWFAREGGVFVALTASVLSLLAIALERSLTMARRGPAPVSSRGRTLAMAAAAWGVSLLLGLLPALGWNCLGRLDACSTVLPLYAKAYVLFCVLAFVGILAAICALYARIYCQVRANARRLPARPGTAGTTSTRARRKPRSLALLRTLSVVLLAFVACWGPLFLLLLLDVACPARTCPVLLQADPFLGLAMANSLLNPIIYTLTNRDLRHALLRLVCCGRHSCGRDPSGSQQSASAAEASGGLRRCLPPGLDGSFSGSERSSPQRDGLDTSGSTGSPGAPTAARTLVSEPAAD
Sequence of Endothelin ETA (P25101 21-427): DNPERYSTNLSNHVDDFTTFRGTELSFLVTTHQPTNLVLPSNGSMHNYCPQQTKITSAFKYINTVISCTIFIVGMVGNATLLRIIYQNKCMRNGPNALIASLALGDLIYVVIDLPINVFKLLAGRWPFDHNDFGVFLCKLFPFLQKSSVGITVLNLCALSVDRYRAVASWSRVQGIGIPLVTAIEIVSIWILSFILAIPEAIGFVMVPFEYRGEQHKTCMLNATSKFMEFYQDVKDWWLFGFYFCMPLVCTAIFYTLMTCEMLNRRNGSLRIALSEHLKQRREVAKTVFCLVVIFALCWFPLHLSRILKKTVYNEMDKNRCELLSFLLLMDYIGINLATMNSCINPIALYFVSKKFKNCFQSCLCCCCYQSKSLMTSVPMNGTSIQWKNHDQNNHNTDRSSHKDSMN
Sequence of Angiotensin AT2 (P50052 whole entry): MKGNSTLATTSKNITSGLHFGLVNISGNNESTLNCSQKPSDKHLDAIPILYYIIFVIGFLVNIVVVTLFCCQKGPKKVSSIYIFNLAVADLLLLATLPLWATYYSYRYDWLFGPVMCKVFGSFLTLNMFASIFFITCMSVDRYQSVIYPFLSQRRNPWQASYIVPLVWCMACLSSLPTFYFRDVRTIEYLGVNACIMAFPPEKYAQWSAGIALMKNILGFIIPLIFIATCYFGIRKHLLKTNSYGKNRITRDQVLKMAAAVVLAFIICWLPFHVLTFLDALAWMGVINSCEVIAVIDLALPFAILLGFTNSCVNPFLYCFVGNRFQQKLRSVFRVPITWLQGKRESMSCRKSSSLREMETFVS
Sequence of Dopamine D2L (P14416 whole entry): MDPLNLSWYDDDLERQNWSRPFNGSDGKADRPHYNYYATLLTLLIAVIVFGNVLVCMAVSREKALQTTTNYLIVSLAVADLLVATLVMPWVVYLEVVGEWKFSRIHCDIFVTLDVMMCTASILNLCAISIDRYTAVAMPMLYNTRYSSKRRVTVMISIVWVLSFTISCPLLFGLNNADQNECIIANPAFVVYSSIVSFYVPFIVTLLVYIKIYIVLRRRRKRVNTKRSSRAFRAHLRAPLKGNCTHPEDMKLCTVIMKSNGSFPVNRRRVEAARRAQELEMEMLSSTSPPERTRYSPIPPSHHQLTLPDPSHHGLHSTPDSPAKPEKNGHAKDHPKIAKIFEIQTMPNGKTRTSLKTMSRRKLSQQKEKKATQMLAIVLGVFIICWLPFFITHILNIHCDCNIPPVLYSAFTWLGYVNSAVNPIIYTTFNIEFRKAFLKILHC
Sequence of Histamine H1, Central (P31389 whole entry): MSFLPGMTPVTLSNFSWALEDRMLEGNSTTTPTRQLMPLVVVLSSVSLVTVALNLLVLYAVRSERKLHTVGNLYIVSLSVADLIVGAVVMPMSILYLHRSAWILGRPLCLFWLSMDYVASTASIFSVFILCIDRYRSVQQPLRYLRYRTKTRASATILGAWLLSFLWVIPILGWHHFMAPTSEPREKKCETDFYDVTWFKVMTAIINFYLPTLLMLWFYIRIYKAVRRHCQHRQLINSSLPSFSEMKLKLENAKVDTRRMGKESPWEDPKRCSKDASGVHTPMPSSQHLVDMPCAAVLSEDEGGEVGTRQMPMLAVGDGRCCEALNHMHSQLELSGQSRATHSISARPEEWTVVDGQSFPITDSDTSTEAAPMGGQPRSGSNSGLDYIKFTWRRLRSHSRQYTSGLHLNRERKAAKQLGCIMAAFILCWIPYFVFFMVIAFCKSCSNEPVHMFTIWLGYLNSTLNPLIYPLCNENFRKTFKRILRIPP

| SMILES | inhibition of S1P-stimulated calcium increases, Edg 8 (Edg 8 receptor) | activity at various targets tested, including other GPCRs, ion channels, and enzymes [1] | inhibition of LPA-stimulated calcium mobilization [2] | inhibition of S1P-stimulated calcium increases, Edg 5 (Edg 5 receptor) | inhibition of S1P-stimulated calcium increases, Edg 6 (Edg 6 receptor) | IC50 (Edg 6 receptor) [µM] | inhibition of LPA-stimulated calcium increases, Edg 7 (Edg-7 receptor) | inhibition of LPA-stimulated calcium increases, Edg 4 (Edg-4 receptor) | inhibition of the Edg 2 receptor (Edg-2 receptor) | IC50 (Edg-2 receptor) [µM] | Fold Selective (Edg-2 receptor) | inhibition of S1P-stimulated calcium increases, Edg 3 (Edg 3 receptor) | inhibition of S1P-stimulated calcium increases, Edg 1 (Edg 1 receptor) | reversal of LPA inhibition of forskolin-stimulated cAMP production [7] | inhibition of LPA-stimulated calcium mobilization [8] | other results |
| --- | --- | --- | --- | --- | --- | --- | --- | --- | --- | --- | --- | --- | --- | --- | --- | --- |
| CCOc1ccccc1N1C(=O)CC(N(O)c2ccccc2)C1=O (stereo not shown) [Compound 101, 1-(2-Ethoxyphenyl)-3-(hydroxyphenylamine)-pyrrolidine-2,5-dione] | did not inhibit | did not demonstrate any significant activity | inhibition | did not inhibit | did not inhibit | > 20 | did not inhibit | did not inhibit | specifically inhibit | 1.4 | >14.3 | did not inhibit | did not inhibit | – | – | inhibition of LPA-stimulated calcium mobilization, dose response to LPA ([2]; varying concentrations of compound (0-10 μM), FIG. 5): inhibition; activity in radioligand binding assay, Adrenergic Beta, non-selective (Adrenergic β): no significant activity; activity in radioligand binding assay, Dopamine D2L (Dopamine D2L): no significant activity; activity in radioligand binding assay, H1 central (Histamine H1, Central): no significant activity; activity in radioligand binding assay, Muscarinic, non-selective, central [3]: no significant activity; activity in radioligand binding assay, Adrenergic Alpha 1, non-selective [4]: no significant activity; activity in radioligand binding assay, Adrenergic Alpha 2, non-selective (Adrenergic α2): no significant activity; activity in radioligand binding assay, Angiotensin AT2 (Angiotensin AT2): no significant activity; activity in radioligand binding assay, Serotonin 5HT1 non-selective [5]: no significant activity; activity in radioligand binding assay, Endothelin ETA (Endothelin ETA): no significant activity; activity in radioligand binding assay, Calcium Channels Type L, DHP [6]: no significant activity |
| CCn1nc(C)c(-c2ccccc2O)c1-c1ccccc1 [Compound 103, 2(1-Ethyl-3-methyl-5-phenyl-1H-pyrazol-4-yl)phenol] | did not inhibit | did not demonstrate any significant activity | inhibition | did not inhibit | did not inhibit | > 20 | did not inhibit | did not inhibit | specifically inhibited | 0.64 | >31.3 | did not inhibit | did not inhibit | reverses the inhibitory effects of LPA | almost completely inhibited | – |
| CCOc1ccccc1N1C(=O)CC(N(O)c2ccc(F)cc2)C1=O (stereo not shown) [Compound 111, 1-(2-Ethoxyphenyl)-3-[(4-fluorophenyl)hydroxylamino]pyrrolidine-2,5-dione] | – | – | – | – | – | – | – | – | – | – | – | – | – | – | – | melting point: 123 to 124 °C |
| O=C(CC(=O)C(F)(F)F)Nc1cc(-c2ccccc2)n[nH]1 [Compound 201, 4,4,4-trifluoro-3-oxo-N-(5-phenyl-2H-pyrazol-3-yl)butyramide, reference compound] | – | – | not | – | – | – | – | – | – | – | – | – | – | little to no effect | little to no effect | – |
